# Experimental data as given in patent US20250034216A1, “STEREOSELECTIVE COVALENT LIGANDS FOR ONCOGENIC AND IMMUNOLOGICAL PROTEINS” (The Scripps Research Institute, priority 2021, published 2025).
# Target: T1, CTC1_C584 (Homo sapiens, UniProt Q2NKJ3)
# T1 construct: endogenous in cells; host or cells: 22Rv1
# T1 sequence (Q2NKJ3 1-1217): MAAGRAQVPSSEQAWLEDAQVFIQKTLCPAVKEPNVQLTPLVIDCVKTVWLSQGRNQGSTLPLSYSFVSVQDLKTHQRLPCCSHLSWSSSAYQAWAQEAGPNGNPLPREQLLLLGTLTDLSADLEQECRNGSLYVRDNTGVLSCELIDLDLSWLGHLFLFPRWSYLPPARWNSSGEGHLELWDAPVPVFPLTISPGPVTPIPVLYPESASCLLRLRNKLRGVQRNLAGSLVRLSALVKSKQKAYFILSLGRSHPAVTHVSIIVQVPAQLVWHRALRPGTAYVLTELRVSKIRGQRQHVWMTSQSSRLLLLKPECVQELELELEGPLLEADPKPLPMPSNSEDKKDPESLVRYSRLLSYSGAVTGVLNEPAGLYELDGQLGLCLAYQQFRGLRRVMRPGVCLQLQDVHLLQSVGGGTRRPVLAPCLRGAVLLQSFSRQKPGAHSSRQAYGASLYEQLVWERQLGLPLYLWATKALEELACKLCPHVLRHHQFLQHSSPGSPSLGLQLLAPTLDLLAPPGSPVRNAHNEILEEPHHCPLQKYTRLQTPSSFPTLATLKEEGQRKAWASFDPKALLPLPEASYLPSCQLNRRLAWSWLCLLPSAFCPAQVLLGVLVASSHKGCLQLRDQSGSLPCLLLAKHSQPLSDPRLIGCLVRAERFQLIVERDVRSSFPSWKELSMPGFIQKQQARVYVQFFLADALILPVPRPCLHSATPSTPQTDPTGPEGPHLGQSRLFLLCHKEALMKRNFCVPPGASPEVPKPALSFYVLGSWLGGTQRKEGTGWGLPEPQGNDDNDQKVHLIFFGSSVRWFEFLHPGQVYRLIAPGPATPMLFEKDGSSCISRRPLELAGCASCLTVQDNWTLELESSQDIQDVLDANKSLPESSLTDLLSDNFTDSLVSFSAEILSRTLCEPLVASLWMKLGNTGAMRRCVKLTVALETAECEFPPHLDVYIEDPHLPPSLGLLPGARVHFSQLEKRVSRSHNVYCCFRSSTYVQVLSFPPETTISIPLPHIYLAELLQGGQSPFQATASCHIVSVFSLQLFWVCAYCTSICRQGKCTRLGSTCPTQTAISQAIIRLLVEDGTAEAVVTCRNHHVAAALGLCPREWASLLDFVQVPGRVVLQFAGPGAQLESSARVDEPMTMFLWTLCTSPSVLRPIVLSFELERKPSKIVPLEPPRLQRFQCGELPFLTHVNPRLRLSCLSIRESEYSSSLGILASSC
# Test: IA-DTB cysteine engagement
# Type: binding
# Conditions: 22Rv1 cells, 20 μM probe, 1 h, relative to DMSO
# Experimental: Sample preparation: Cells (adherent: 15 cm dishes, suspension: 2 million cells/mL) were treated with electrophilic probes in situ for indicated times and concentrations, washed with ice-cold PBS, and flash frozen in liquid nitrogen. Cell pellets were lysed by sonication (8 pulses, 40% power) in 500 μL ice-cold PBS supplemented with cOmplete protease inhibitors (1 tablet/10 mL of PBS). Whole cell lysates protein content was measured using a standard DC protein assay (Bio-Rad) and 500 μL (2 mg/mL protein content) were treated with 5 μL of 10 mM 1A-DTB (in DMSO) for 1 h at ambient temperature with occasional vortexing. Samples were methanol-chloroform precipitated with the addition of 500 μL ice-cold MeOH and 200 μL CHCl3, vortexed, and centrifuged (10 min, 10,000 g). Without disrupting the protein disk, both top and bottom layers were aspirated and the protein disk was washed with 1 mL ice-cold MeOH and centrifuged (10 min, 10,000 g). The pellets were allowed to air dry, and then re-suspended in 90 μL buffer (9 M urea, 10 mM DTT, 50 mM TEAB pH 8.5). Samples were reduced by heating at 65 C for 20 minutes and water bath sonicated as needed to resuspend the protein pellets, followed by alkylation via addition of 10 μL (500 mM) iodoacetamide and incubated at 37 C for 30 min with shaking. Samples were briefly centrifuged, and probe sonicated once more to ensure complete resuspension, and then diluted with 300 μL buffer (50 mM TEAB pH 8.5) to reach final concentration of 2 M urea. Trypsin (4 μL of 0.25 μg/μL in trypsin resuspension buffer with 25 mM CaCl2)) was added to each sample and digested at 37 C for 2 h to overnight. Digested samples were then diluted with 300 μL wash buffer (50 mM TEAB pH 8.5, 150 mM NaCl, 0.2% NP-40) containing streptavidin-agarose beads (50 μL of 50% slurry in wash buffer) and were rotated at room temperature for 2 hours. Enriched samples were pelleted by centrifugation (2000 g, 2 min) and transferred to BioSpin columns and washed (3×1 mL wash buffer, 3×1 mL PBS, 3×1 mL water). Enriched peptides were eluted by 300 μL 50% acetonitrile with 0.1% formic acid and eluate was evaporated to dryness via speedvac. IA-DTB labeled and enriched peptides were resuspended in 100 μL EPPS buffer (200 mM, pH 8.0) with 30% acetonitrile, vortexed, and water bath sonicated. Samples were TMT labeled with 3 μL of corresponding TMT tag (5 mg tag resuspended in 256 μL acetonitrile), vortexed, and incubated at room temperature for 1 hour. TMT labeling was quenched with the addition of hydroxylamine (5 μL 5% solution in H2O) and incubated for 15 minutes at room temperature. Samples were then acidified with 5 μL formic acid, combined and dried using a SpeedVac. Samples were desalted via Sep-Pak and then high pH fractionated.
# Data processing: Cysteine engagement ratios (probe vs DMSO) were calculated for each peptide-spectra match by dividing each TMT reporter ion intensity by the average intensity for the channels corresponding to DMSO treatment. Peptide-spectra matches were then grouped based on protein ID and residue number (e.g., PSME1 C22), excluding peptides with summed reporter ion intensities for the DMSO channels <10,000, coefficient of variation for DMSO channels >0.5, and non-tryptic peptide sequences. TMT reporter ion intensities were normalized to the median summed signal intensity across channels.
# Filtering of cysteine data: Replicates were combined based on cell line and treatment condition (probe, concentration, duration) by averaging cysteine engagement ratios across all experiments.
row,% engagement CTC1_C584 [%],SMILES
1,66.25,"C=CC(=O)N1C[C@H](c2ccc(Br)cc2)[C@H]1C(=O)Nc1cccc2cccnc12 [MY-3B, (2S,3S)-1-acryloyl-3-(4-bromophenyl)-N-(quinolin-8-yl)azetidine-2-carboxamide]"
2,37.25,"C=CC(=O)N1C[C@H](c2ccc(Br)cc2)[C@@H]1C(=O)Nc1cccc2cccnc12 [MY-1B, (2R,3S)-1-acryloyl-3-(4-bromophenyl)-N-(quinolin-8-yl)azetidine-2-carboxamide]"
3,23.5,"C=CC(=O)N1C[C@H](c2ccc(Br)cc2)[C@H]1C(=O)Nc1cccc2cccnc12 [MY-3A, (2S,3S)-1-acryloyl-3-(4-bromophenyl)-N-(quinolin-8-yl)azetidine-2-carboxamide]"
4,20.25,"C=CC(=O)N1C[C@@H](c2ccc(Br)cc2)[C@H]1C(=O)Nc1cccc2cccnc12 [MY-1A, (2S,3R)-1-acryloyl-3-(4-bromophenyl)-N-(quinolin-8-yl)azetidine-2-carboxamide]"
